The results in this text go back to US8937167B2 (Washington University, priority 2009, dated 2015).

Entries after “also recorded” stand apart in the source; their conditions may differ.

For assay [1], the system named is UTI89. Kind of assay: Enumeration of bladder IBCs by LacZ staining in infected mice. The assay is classed as in vivo, E. coli (UPEC); host C3H/HeN mouse. The following applies: UTI89 pre-incubated with mannoside (as little as 10 μM); 6 hpi. Here is the method: After invasion, UPEC are able to rapidly replicate to form IBCs, thus dramatically expanding in numbers. After maturation of the IBC, bacteria are able to disperse from the biomass and spread to neighboring cells to expand the buildup in bacterial numbers via next generation IBC. The ability of mannosides to block IBC formation was evaluated based on LacZ staining of whole mount bladders, a protocol developed to enumerate IBCs. Whole bladder titers were also determined by quantifying colony forming units (CFUs) at 6 hours post-infection and later time points as test compounds were further developed.
Enumeration of bladder IBCs. For bacterial pretreatment experiments, mannoside was added to the bacterial suspension and incubated for 20 min. For animal pretreatment experiments, mannoside ZFH-2056 was administered either IP (5 mg/kg) or orally (100 mg/kg) 30 min prior to inoculation with UTI89. To accurately count the number of IBCs, mice were sacrificed 6 hpi and bladders were aseptically removed, bisected, splayed on silicone plates and fixed in 2% paraformaldehyde (v/v). IBCs, readily discernable as punctate violet spots, were quantified by LacZ staining of whole bladders.
For animal pretreatment experiments, mannoside ZFH-2056 was administered either IP (5 mg/kg) or orally (100 mg/kg) 30 min prior to inoculation with UTI89. To accurately count the number of IBCs, mice were sacrificed 6 hpi and bladders were aseptically removed, bisected, splayed on silicone plates and fixed in 2% paraformaldehyde (v/v). IBCs, readily discernable as punctate violet spots, were quantified by LacZ staining of whole bladders.

Assay [2] relates to UTI89. Put plainly: Ex vivo gentamicin protection assay of infected mouse bladders (luminal vs intracellular bacteria). The assay is classed as in vivo, E. coli (UPEC); host mouse. To be noted: IP 5 mg/kg pretreatment; 6 hpi. The source says: Based on the extensive elucidation of the UPEC pathogenic cascade, critical nodes in pathogenesis that mannosides would target and thereby have powerful and potent therapeutic ramifications were identified. The first step in the UPEC pathway involves FimH-mediated colonization of the bladder epithelium via the recognition of mannose receptors. Bacterial invasion into superficial bladder umbrella cells can then ensue. […] To test this, a well-established gentamicin protection assay that allows the determination of the luminally bound fraction versus the intracellular fraction was utilized (FIG. 10). […] This may be due to contamination from bacteria in the urine or bacteria that are non-specifically associated with the epithelium. In any case, blocking invasion blocks the ability of the bacteria to rapidly expand in numbers. This is due to the ability of the mannosides to block the IBC mechanism.
Gentamicin protection assay. To enumerate bacteria present in the intracellular versus extracellular compartments, bladders were aseptically harvested at 6 hpi. The bladders were then bisected twice and washed three times in 500 μl of PBS each. The wash fractions were pooled, lightly spun at 500 rpm for 5 min to pellet exfoliated bladder cells, serially diluted, and plated onto LB agar to obtain the luminal fraction. The bladders were treated with 100 μg of gentamicin/ml for 90 min at 37° C. After treatment, the bladders were washed twice with PBS to eliminate residual gentamicin, homogenized in 1 ml of PBS, serially diluted, and plated onto LB agar to enumberate the CFUs in the intracellular fraction.
To enumerate bacteria present in the intracellular versus extracellular compartments, bladders were aseptically harvested at 6 hpi. The bladders were then bisected twice and washed three times in 500 μl of PBS each. The wash fractions were pooled, lightly spun at 500 rpm for 5 min to pellet exfoliated bladder cells, serially diluted, and plated onto LB agar to obtain the luminal fraction. The bladders were treated with 100 μg of gentamicin/ml for 90 min at 37° C. […]

The next assay has as its system PBC-1. Put plainly: Mouse bladder infection with TMP-SMZ resistant strain, with or without TMP-SMZ in drinking water. Type of assay: in vivo, E. coli (UPEC); host C3H/HeN mouse. The following applies: 6 hpi, mannoside IP 30 min prior and/or TMP-SMZ 3 days in drinking water.
The target in the next assay is T1, FimH lectin domain (Escherichia coli, UniProt P08191).
T1 construct: made by biotinylating FimH lectin domain^25 at a 1:1 molar ratio with NHS-PEO4-Biotin
T1 sequence (P08191 22-179): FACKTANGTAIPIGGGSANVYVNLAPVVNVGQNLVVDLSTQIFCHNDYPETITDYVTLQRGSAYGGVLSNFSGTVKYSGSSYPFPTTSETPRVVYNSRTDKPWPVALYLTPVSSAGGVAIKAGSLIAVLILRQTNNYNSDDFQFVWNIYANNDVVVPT
Kind of assay: biochemical. The assay is classed as binding, E. coli. As to the method: Samples or buffer (200 μL per well) were dispensed into 96-well microtiter plates (Greiner Bio-One, Monroe N.C.) and maintained at 30° C. with 1000 RPM shaking. Pre-manufactured pins for individual assays were made by biotinylating FimH lectin domain^25 at a 1:1 molar ratio with NHS-PEO4-Biotin (Thermo Fisher, Rockford Ill.), diluting it to 50 μg/ml in 20 mM HEPES pH 7.5, 150 mM NaCl (HBS), immobilizing it on high-binding streptavidin-coated biosensor tips (Super Streptavidin, ForteBio, Inc., Menlo Park, Calif.) for 10 minutes at 30° C., blocking the pins with 10 μg/ml biocytin for 2 minutes, washing in HBS for 1 hour, and rinsing in 15% sucrose in HBS. Pins were then air dried for 30 minutes and stored in their original packaging with a dessicant packet. Assays were performed by re-wetting premade pins with HBS for 15 minutes, then storing them in fresh HBS until use. […] Each experimental pin was referenced to a biocytin-blocked pin to control for instrument drift and a second biocytin-blocked pin that was passed through a duplicate experiment in the same 96-well plate to control for nonspecific binding of the compound to the pin. Kinetics data and affinity constants were generated automatically by the global fitting protocol in ForteBio Data Analysis version 6.3.

For `CNC(=O)c1cc(C(=O)NC)cc(-c2ccc(O[C@H]3O[C@H](CO)[C@@H](O)[C@H](O)[C@@H]3O)cc2)c1` [ZFH-2056], in the assay on UTI89 [1], the IBC formation entry is recorded as “most significant reduction in IBCs; also recorded: reduced IBC formation”. Also, in the assay on UTI89 [2], the “intracellular bacteria (CFUs after gentamicin treatment)” value is on record as “eliminated all CFUs; also recorded: significantly reduced” and the luminal bacteria entry was “significantly reduced”. Moreover, in the assay with PBC-1, the “bladder bacterial CFUs” value was “significant drop in bacterial load”.

Turning to `COC(=O)c1cccc(-c2ccc(O[C@H]3O[C@H](CO)[C@@H](O)[C@H](O)[C@@H]3O)cc2)c1` [Compound 1, phenyl mannoside, reference compound], at FimH lectin domain, the “Kd, qualitative” value is recorded as “picomolar range”. In addition, on FimH lectin domain (Table 20, read-out: Octet Kd), the Kd (as a rule, the free concentration of one partner at which half of the binding sites on the other are occupied at equilibrium, for simple one-to-one binding) was 0.08 nM.
